Source: patent US6737383B1, “Herbicidal oxadiazolidines” (priority 1999, dated 2004)

What was measured:
blackgrass [1] = test: Test B pre/postemergence blackgrass; format: in vivo, Alopecurus myosuroides
How it was run: (§1)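 Response is a visual 0-to-10 score relative to untreated plants, where 0 means no effect and 10 means complete control, taken twelve to sixteen days after application. Treatments went onto soil at planting and onto foliage of 1- to 4-leaf plants, using a surfactant-containing non-phytotoxic solvent.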

giant foxtail = test: Test B pre/postemergence giant foxtail; format: in vivo, Setaria faberii
How it was run: as §1

wheat = test: Test B pre/postemergence wheat; format: in vivo, Triticum aestivum
How it was run: as §1

purple nutsedge = test: Test B pre/postemergence purple nutsedge; format: in vivo, Cyperus rotundus
How it was run: as §1

winter wheat [2] = test: Test E winter wheat; format: in vivo, Triticum aestivum; details: Postemergence; for Wheat (winter) plant response rating: 0 to 100 scale where 0 is no effect and 100 is complete control
How it was run: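 For postemergence, plants at the 1- to 4-leaf stage, in a 60:40 mix of sandy loam and potting mix, treated with compound formulated in a surfactant-containing non-phytotoxic solvent. Visual assessment versus untreated controls followed roughly 21–28 days in the greenhouse.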

blackgrass [3] = test: Test E blackgrass; format: in vivo, Alopecurus myosuroides; details: Preemergence
green foxtail = test: Test E green foxtail; format: in vivo, Setaria viridis; details: Preemergence
Italian ryegrass = test: Test E Italian ryegrass; format: in vivo, Lolium multiflorum; details: Preemergence
winter wheat [4] = test: Test E winter wheat; format: in vivo, Triticum aestivum; details: Preemergence
wild oat = test: Test E wild oat; format: in vivo, Avena fatua; details: Preemergence; for Wild oat plant response rating (0 to 100 scale): Rate 250 g/ha
winter barley = test: Test E winter barley; format: in vivo, Hordeum vulgare; details: Preemergence
[5] = Postemergence, Rate 31 g/ha, visual rating, scale 0 to 10 (0 no effect, 10 complete control)
[6] = Preemergence, Rate 31 g/ha, visual rating, scale 0 to 10 (0 no effect, 10 complete control)
[7] = Preemergence, Rate 62 g/ha, scale of 0 to 10 where 0 is no effect and 10 is complete control
[8] = Preemergence, Rate 250 g/ha, scale of 0 to 10 where 0 is no effect and 10 is complete control
[9] = Rate 62 g/ha, Postemergence, scale 0 to 10 (0 no effect, 10 complete control)
[10] = Rate 125 g/ha, Postemergence, scale of 0 to 10 where 0 is no effect and 10 is complete control
[11] = Rate 125 g/ha, Preemergence, scale of 0 to 10 where 0 is no effect and 10 is complete control
[12] = Rate 250 g/ha, Postemergence, scale of 0 to 10 where 0 is no effect and 10 is complete control
[13] = Rate 125 g/ha, 0 to 100 scale (0 no effect, 100 complete control)
[14] = Postemergence, Rate 62 g/ha, scale 0 to 10, 0 is no effect, 10 is complete control
[15] = Postemergence, Rate 250 g/ha, scale 0 to 10, 0 no effect, 10 complete control
[16] = Preemergence, Rate 62 g/ha, scale 0 to 10 (0 no effect, 10 complete control)
[17] = Preemergence, Rate 125 g/ha, scale 0 to 10 (0 no effect, 10 complete control)
[18] = Preemergence, Rate 500 g/ha, scale 0 (no effect) to 10 (complete control)
[19] = Rate 125 g/ha, Postemergence, scale 0 to 10, 0 no effect, 10 complete control
[20] = Rate 500 g/ha, Postemergence, scale 0 to 10, 0 no effect, 10 complete control
[21] = Rate 1000 g/ha, 0 to 100 scale, 0 is no effect and 100 is complete control
[22] = Rate 500 g/ha, 0 to 100 scale, 0 no effect, 100 complete control
[23] = Rate 500 g/ha, 0 to 100 scale where 0 is no effect and 100 is complete control
[24] = Rate 1000 g/ha, 0 to 100 scale where 0 is no effect and 100 is complete control
[25] = Postemergence, Rate 125 g/ha, scale of 0 to 10 where 0 is no effect and 10 is complete control
[26] = Preemergence, Rate 125 g/ha, 0 is no effect, 10 is complete control
[27] = Preemergence, Rate 250 g/ha, scale 0 to 10, 0 is no effect, 10 is complete control
[28] = Preemergence, Rate 500 g/ha, scale 0 to 10 (0 no effect, 10 complete control)
[29] = Rate 62 g/ha, Postemergence, scale of 0 to 10 where 0 is no effect and 10 is complete control
[30] = Rate 250 g/ha, Postemergence, scale 0 to 10, 0 is no effect, 10 is complete control
[31] = Rate 500 g/ha, Postemergence, scale 0 to 10

## CCOCn1c(=O)on(C(=O)N(c2ccc(F)cc2)C(C)C)c1=O [Compound 295]
Blackgrass [1]; [5]
  Blackgrass plant response rating: 0
Blackgrass [1]; [6]
  Blackgrass plant response rating: 4
Blackgrass [1]; [7]
  Blackgrass plant response rating: 5
Blackgrass [1]; [8]
  Blackgrass plant response rating: 10
Blackgrass [1]; [9]
  Blackgrass plant response rating: 2
Blackgrass [1]; [10]
  Blackgrass plant response rating: 7
Blackgrass [1]; [11]
  Blackgrass plant response rating: 10
Blackgrass [1]; [12]
  Plant response rating, Blackgrass: 9
Giant foxtail; [5]
  Giant foxtail plant response rating: 0
Giant foxtail; [6]
  Giant foxtail plant response rating: 8
Giant foxtail; [7]
  Giant foxtail plant response rating: 8
Giant foxtail; [8]
  Giant foxtail plant response rating: 10
Giant foxtail; [9]
  Giant foxtail plant response rating: 0
Giant foxtail; [10]
  Giant foxtail plant response rating: 6
Giant foxtail; [11]
  Giant foxtail plant response rating: 10
Giant foxtail; [12]
  Plant response rating, Giant foxtail: 9
wheat; [5]
  Wheat plant response rating: 0
wheat; [6]
  Wheat plant response rating: 0
wheat; [7]
  Wheat plant response rating: 0
wheat; [8]
  Wheat plant response rating: 6
wheat; [9]
  Wheat plant response rating: 0
wheat; [10]
  Wheat plant response rating: 0
wheat; [11]
  Wheat plant response rating: 3
wheat; [12]
  Plant response rating, Wheat: 3
Purple nutsedge; [5]
  Nutsedge plant response rating: 0
Purple nutsedge; [6]
  Nutsedge plant response rating: 0
Purple nutsedge; [7]
  Nutsedge plant response rating: 0
Purple nutsedge; [8]
  Nutsedge plant response rating: 0
Purple nutsedge; [9]
  Nutsedge plant response rating: 0
Purple nutsedge; [10]
  Nutsedge plant response rating: 0
Purple nutsedge; [11]
  Nutsedge plant response rating: 0
Purple nutsedge; [12]
  Plant response rating, Nutsedge: 0
Winter wheat [2]; Rate 125 g/ha, 0 to 100 scale, 0 is no effect, 100 is complete control
  Plant response rating, Wheat (winter): 30
Winter wheat [2]; Rate 250 g/ha
  Wheat (winter) plant response rating: 50
Blackgrass [3]; [13]
  Plant response rating, Blackgrass: 0
Blackgrass [3]; Rate 250 g/ha
  Blackgrass plant response rating (0 to 100 scale): 10
Green foxtail; [13]
  Plant response rating, Green foxtail: 50
Green foxtail; Rate 250 g/ha
  Green foxtail plant response rating (0 to 100 scale): 100
Italian ryegrass; [13]
  Plant response rating, I. Ryegrass: 40
Italian ryegrass; Rate 250 g/ha
  I. Ryegrass plant response rating (0 to 100 scale): 50
Winter wheat [4]; [13]
  Plant response rating, Wheat (winter): 40
Winter wheat [4]; Rate 250 g/ha
  Wheat (winter) plant response rating (0 to 100 scale): 60
Wild oat; [13]
  Plant response rating, Wild oat: 0
Wild oat
  Wild oat plant response rating (0 to 100 scale): 10
Winter barley; [13]
  Plant response rating, Barley (winter): 20
Winter barley; Rate 250 g/ha
  Barley (winter) plant response rating (0 to 100 scale): 30

## CC(C)N(C(=O)n1oc(=O)n(Cc2cccs2)c1=O)c1ccc(F)cc1F [Compound 86]
Blackgrass [1]; [14]
  Blackgrass plant response rating: 0
Blackgrass [1]; [15]
  Blackgrass plant response rating: 1
Blackgrass [1]; [16]
  Blackgrass plant response rating: 2
Blackgrass [1]; [17]
  Plant response rating, Blackgrass: 3
Blackgrass [1]; [8]
  Plant response rating, Blackgrass: 5
Blackgrass [1]; [18]
  Blackgrass plant response rating: 8
Blackgrass [1]; [19]
  Blackgrass plant response rating: 0
Blackgrass [1]; [20]
  Blackgrass plant response rating: 3
Giant foxtail; [14]
  Giant foxtail plant response rating: 0
Giant foxtail; [15]
  Giant foxtail plant response rating: 3
Giant foxtail; [16]
  Giant foxtail plant response rating: 8
Giant foxtail; [17]
  Plant response rating, Giant foxtail: 9
Giant foxtail; [8]
  Plant response rating, Giant foxtail: 10
Giant foxtail; [18]
  Giant foxtail plant response rating: 10
Giant foxtail; [19]
  Giant foxtail plant response rating: 2
Giant foxtail; [20]
  Giant foxtail plant response rating: 5
wheat; [14]
  Wheat plant response rating: 0
wheat; [15]
  Wheat plant response rating: 0
wheat; [16]
  Wheat plant response rating: 0
wheat; [17]
  Plant response rating, Wheat: 0
wheat; [8]
  Plant response rating, Wheat: 0
wheat; [18]
  Wheat plant response rating: 0
wheat; [19]
  Wheat plant response rating: 0
wheat; [20]
  Wheat plant response rating: 0
Purple nutsedge; [14]
  Nutsedge plant response rating: 0
Purple nutsedge; [15]
  Nutsedge plant response rating: 0
Purple nutsedge; [16]
  Nutsedge plant response rating: 0
Purple nutsedge; [17]
  Plant response rating, Nutsedge: 0
Purple nutsedge; [8]
  Plant response rating, Nutsedge: 0
Purple nutsedge; [18]
  Nutsedge plant response rating: 0
Purple nutsedge; [19]
  Nutsedge plant response rating: 0
Purple nutsedge; [20]
  Nutsedge plant response rating: 0
Winter wheat [2]; Rate 250 g/ha, 0 to 100 scale (0 no effect, 100 complete control)
  Plant response rating, Wheat (winter): 55
Winter wheat [2]; [21]
  Plant response rating, Wheat (winter): 60
Winter wheat [2]; [22]
  Plant response rating, Wheat (winter): 70
Blackgrass [3]; Rate 250 g/ha, 0 to 100 scale
  Plant response rating, Blackgrass: 60
Blackgrass [3]; [23]
  Plant response rating, Blackgrass: 55
Blackgrass [3]; [24]
  Plant response rating, Blackgrass: 65
Green foxtail; Rate 250 g/ha, 0 to 100 scale
  Plant response rating, Green foxtail: 40
Green foxtail; [23]
  Plant response rating, Green foxtail: 55
Green foxtail; [24]
  Plant response rating, Green foxtail: 100
Italian ryegrass; Rate 250 g/ha, 0 to 100 scale
  Plant response rating, I. Ryegrass: 30
Italian ryegrass; [23]
  Plant response rating, I. Ryegrass: 50
Italian ryegrass; [24]
  Plant response rating, I. Ryegrass: 60
Winter wheat [4]; Rate 250 g/ha, 0 to 100 scale
  Plant response rating, Wheat (winter): 60
Winter wheat [4]; [23]
  Plant response rating, Wheat (winter): 40
Winter wheat [4]; [24]
  Plant response rating, Wheat (winter): 65
Wild oat; [23]
  Plant response rating, Wild oat: 60
Wild oat; [24]
  Plant response rating, Wild oat: 70
Winter barley; Rate 250 g/ha, 0 to 100 scale
  Plant response rating, Barley (winter): 70
Winter barley; [23]
  Plant response rating, Barley (winter): 80
Winter barley; [24]
  Plant response rating, Barley (winter): 70

## CC(C)N(C(=O)n1oc(=O)n([C@@H](C)c2ccccc2)c1=O)c1ccc(F)cc1 [Compound 167]
Blackgrass [1]; [25]
  Blackgrass plant response rating: 0
Blackgrass [1]; [7]
  Blackgrass plant response rating: 0
Blackgrass [1]; [26]
  Blackgrass plant response rating (0 to 10 scale): 0
Blackgrass [1]; [27]
  Blackgrass plant response rating: 3
Blackgrass [1]; [28]
  Blackgrass plant response rating: 3
Blackgrass [1]; [29]
  Blackgrass plant response rating: 0
Blackgrass [1]; [30]
  Plant response rating, Blackgrass: 5
Blackgrass [1]; [31]
  Blackgrass plant response rating: 5
Giant foxtail; [25]
  Giant foxtail plant response rating: 0
Giant foxtail; [7]
  Giant foxtail plant response rating: 8
Giant foxtail; [26]
  Giant foxtail plant response rating (0 to 10 scale): 9
Giant foxtail; [27]
  Giant foxtail plant response rating: 10
Giant foxtail; [28]
  Giant foxtail plant response rating: 10
Giant foxtail; [29]
  Giant foxtail plant response rating: 0
Giant foxtail; [30]
  Plant response rating, Giant foxtail: 0
Giant foxtail; [31]
  Giant foxtail plant response rating: 0
wheat; [7]
  Wheat plant response rating: 0
wheat; [26]
  Wheat plant response rating (0 to 10 scale): 0
wheat; [27]
  Wheat plant response rating: 0
wheat; [28]
  Wheat plant response rating: 0
wheat; [30]
  Plant response rating, Wheat: 0
wheat; [31]
  Wheat plant response rating: 0
Purple nutsedge; [25]
  Nutsedge plant response rating: 0
Purple nutsedge; [7]
  Nutsedge plant response rating: 0
Purple nutsedge; [26]
  Nutsedge plant response rating (0 to 10 scale): 0
Purple nutsedge; [27]
  Nutsedge plant response rating: 0
Purple nutsedge; [28]
  Nutsedge plant response rating: 0
Purple nutsedge; [29]
  Nutsedge plant response rating: 0
Purple nutsedge; [30]
  Plant response rating, Nutsedge: 0
Purple nutsedge; [31]
  Nutsedge plant response rating: 0
Winter wheat [2]; [21]
  Plant response rating, Wheat (winter): 50
Winter wheat [2]; [22]
  Plant response rating, Wheat (winter): 40
Winter wheat [2]; Rate 250 g/ha
  Wheat (winter) plant response rating: 30
Blackgrass [3]; Rate 250 g/ha
  Blackgrass plant response rating (0 to 100 scale): 50
Blackgrass [3]; [23]
  Plant response rating, Blackgrass: 60
Blackgrass [3]; [24]
  Plant response rating, Blackgrass: 80
Green foxtail; Rate 250 g/ha
  Green foxtail plant response rating (0 to 100 scale): 60
Green foxtail; [23]
  Plant response rating, Green foxtail: 85
Green foxtail; [24]
  Plant response rating, Green foxtail: 100
Italian ryegrass; Rate 250 g/ha
  I. Ryegrass plant response rating (0 to 100 scale): 30
Italian ryegrass; [23]
  Plant response rating, I. Ryegrass: 65
Italian ryegrass; [24]
  Plant response rating, I. Ryegrass: 80
Winter wheat [4]; Rate 250 g/ha
  Wheat (winter) plant response rating (0 to 100 scale): 10
Winter wheat [4]; [23]
  Plant response rating, Wheat (winter): 20
Winter wheat [4]; [24]
  Plant response rating, Wheat (winter): 30
Wild oat
  Wild oat plant response rating (0 to 100 scale): 30
Wild oat; [23]
  Plant response rating, Wild oat: 40
Wild oat; [24]
  Plant response rating, Wild oat: 50
Winter barley; Rate 250 g/ha
  Barley (winter) plant response rating (0 to 100 scale): 40
Winter barley; [23]
  Plant response rating, Barley (winter): 40
Winter barley; [24]
  Plant response rating, Barley (winter): 20
